# Measurements: patent US6680323B2, “Dihydropyrimidines and uses thereof” (Synaptic Pharmaceutical Corporation, priority 1998, dated 2004)
# Structures can show the parent of a compound that is named as a salt.
# Key:
# human α2b receptor = target: T1, human α2b receptor (Homo sapiens, UniProt P18089); assay: Competition binding ([3H]rauwolscine) at cloned human α2b receptor; settings: transfected LM(tk−) cells, [3H]rauwolscine 0.5 nM; read-out: Binding affinity hα2b
# T1 construct: expressed in transfected cells
# T1 sequence (P18089 1-450): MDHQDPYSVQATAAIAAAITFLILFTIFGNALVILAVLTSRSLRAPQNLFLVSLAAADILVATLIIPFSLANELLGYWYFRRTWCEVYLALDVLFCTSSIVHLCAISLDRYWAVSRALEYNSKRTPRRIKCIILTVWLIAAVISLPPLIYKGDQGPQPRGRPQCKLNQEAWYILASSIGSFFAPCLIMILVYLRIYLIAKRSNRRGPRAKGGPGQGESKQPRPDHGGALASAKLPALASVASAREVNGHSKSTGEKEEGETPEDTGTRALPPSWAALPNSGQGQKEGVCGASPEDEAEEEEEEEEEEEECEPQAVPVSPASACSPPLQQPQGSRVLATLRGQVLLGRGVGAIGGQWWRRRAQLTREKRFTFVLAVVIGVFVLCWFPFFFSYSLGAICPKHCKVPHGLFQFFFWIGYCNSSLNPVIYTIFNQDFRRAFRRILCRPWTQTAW
# Source text: (§1) α2 Human Adrenergic Receptors
# (§2) To determine the potency of α1 antagonists at the α2 receptors, LM(tk−) cell lines stably transfected with the genes encoding the α2a, α2b, and α2c receptors were used. The cell line expressing the α2a receptor is designated L-α2A, and was deposited on Nov. 6, 1992 under ATCC Accession No. CRL 11180. The cell line expressing the α2b receptor is designated L-NGC-α2B, and was deposited on Oct. 25, 1989 under ATCC Accession No. CRL10275. The cell line expressing the α2c receptor is designated L-α2C, and was deposited on Nov. 6, 1992 under ATCC Accession No. CRL-11181. All the cell lines were deposited with the American Type Culture Collection, 12301 Parklawn Drive, Rockville, Md. 20852, U.S.A. under the provisions of the Budapest Treaty for the International Recognition of the Deposit of Microorganisms for the Purposes of Patent Procedure. Cell lysates were prepared as described above (see Radioligand Binding Assays), and suspended in 25 mM glycylglycine buffer (pH 7.6 at room temperature). Equilibrium competition binding assay were performed using [3H]rauwolscine (0.5 nM), and nonspecific binding was determined by incubation with 10 μM phentolamine. The bound radioligand was separated by filtration through GF/B filters using a cell harvester.
# human α2c receptor = target: T2, human α2c receptor (Homo sapiens, UniProt P18825); assay: Competition binding ([3H]rauwolscine) at cloned human α2c receptor; settings: transfected LM(tk−) cells, [3H]rauwolscine 0.5 nM; read-out: Binding affinity hα2c
# T2 construct: expressed in transfected cells
# T2 sequence (P18825 1-462): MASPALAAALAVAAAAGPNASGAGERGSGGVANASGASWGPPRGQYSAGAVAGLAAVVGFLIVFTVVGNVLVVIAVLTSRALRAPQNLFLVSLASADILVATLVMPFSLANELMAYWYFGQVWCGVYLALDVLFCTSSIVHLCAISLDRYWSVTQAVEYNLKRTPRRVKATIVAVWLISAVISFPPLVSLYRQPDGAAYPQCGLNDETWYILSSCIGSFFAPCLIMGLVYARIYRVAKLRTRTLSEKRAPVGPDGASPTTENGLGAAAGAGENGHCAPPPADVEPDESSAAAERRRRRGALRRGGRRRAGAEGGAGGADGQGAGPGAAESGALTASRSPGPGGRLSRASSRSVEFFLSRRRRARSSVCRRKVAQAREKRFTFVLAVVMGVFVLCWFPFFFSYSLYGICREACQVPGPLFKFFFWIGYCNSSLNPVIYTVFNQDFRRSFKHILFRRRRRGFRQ
# Source text: as §1, §2
Ki (human α2b receptor),Ki (human α2c receptor),SMILES
0.97 µM,1.5 µM,"O=C1OCC2=C1C(c1ccc(F)c(F)c1)N(C(=O)NCCCN1CCC(c3ccccn3)CC1)C(=O)N2 (single isomer, unassigned; (+)) [Compound 8, (+)-1-3-{[4-(3,4-Difluorophenyl)-2,5-dioxo-1,2,5,7-tetrahydro-4H-furo[3,4-d]-pyrimidine-3-carbonyl]amino}-propyl-4-(2-pyridyl)-piperidine]"
26 µM,> 50 µM,"COCC1=C(C(=O)OC)[C@H](c2ccc(F)c(F)c2)N(C(=O)NCCCO)C(=O)N1 [Compound 1, (+)-1,2,3,6-Tetrahydro-1-(3-hydroxypropyl)carboxamido-5-methoxycarbonyl-4-methoxymethyl-6-(3,4-difluorophenyl)-2-oxo-pyrimidine]"
8.7 µM,1.5 µM,"COCC1=C(C(=O)OC)[C@H](c2ccc(F)c(F)c2)N(C(=O)NCCCN2CCC(c3cccc[n+]3[O-])CC2)C(=O)N1 [Compound 2, (+)-1,2,3,6-Tetrahydro-1-{N-[4-(2-pyridyl)piperidin-1-yl]propyl}carboxamido-5-methoxycarbonyl-4-methoxymethyl-6-(3,4-difluorophenyl)-2-oxopyrimidine-pyridine-N-oxide hydrochloride]"
9.66 µM,3.39 µM,"COCC1=C(C(=O)OC)[C@H](c2ccc(F)c(F)c2)N(C(=O)NCCC[n+]2ccc(-c3ccccn3)cc2)C(=O)N1 [Compound 3, 4-(2-Pyridyl)-1-{3-[5-carboxymethyl-4-methoxymethyl-2-oxo-6(S)-(3,4-difluorphenyl)-1,2,3,6-tetrahydropyrimidin-1-yl]carboxyaminopropyl}pyridinium chloride]"
1.2 µM,0.26 µM,"COC(=O)C1=C(CO)NC(=O)N(C(=O)NCCCN2CCC(c3ccccn3)CC2)[C@H]1c1ccc(F)c(F)c1 [Compound 7, (+)-1,2,3,6-Tetrahydro-1-{N-[4-(2-pyridyl)piperidin-1-yl]propyl}carboxamido-5-methoxycarbonyl-4-hydroxymethyl-6-(3,4-difluorophenyl)-2-oxopyrimidine]"
> 50 µM,> 50 µM,O=C(O)CCNC(=O)N1C(=O)NC2=C(C(=O)OC2)[C@@H]1c1ccc(F)c(F)c1 [Compound 9]
